Test results published in US12011444B2, “N-substituted indole derivatives as PGE2 receptor modulators” (Idorsia Pharmaceuticals Ltd, priority 2015, dated 2024).

Columns and labels:
[1] = molecular target: PTGER2 (EP2) (Homo sapiens (Human), UniProt P43116); assay: hEP2 b-arrestin assay (PathHunter HEK 293 PTGER2 b-arrestin cells); assay type: cell-based; details: antagonistic activity on hEP2; mean where measured multiple times
In short: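 HEK293 cells expressing ProLink-tagged EP2 and EA-fused β-arrestin 2 (enzyme fragment complementation) were seeded 24 h, pre-incubated with compound 15 min at 37 °C, then stimulated with 5 μM PGE2 (final) for 120 min.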

[2] = molecular target: PTRGER4 (EP4) (Homo sapiens (Human), UniProt P35408); assay: hEP4 b-arrestin assay (PathHunter HEK 293 PTGER4 b-arrestin cells); assay type: cell-based; details: antagonistic activity on hEP4; mean where measured multiple times
Sequence of PTRGER4 (EP4) (P35408 whole entry, looked up, the tested form may be a part): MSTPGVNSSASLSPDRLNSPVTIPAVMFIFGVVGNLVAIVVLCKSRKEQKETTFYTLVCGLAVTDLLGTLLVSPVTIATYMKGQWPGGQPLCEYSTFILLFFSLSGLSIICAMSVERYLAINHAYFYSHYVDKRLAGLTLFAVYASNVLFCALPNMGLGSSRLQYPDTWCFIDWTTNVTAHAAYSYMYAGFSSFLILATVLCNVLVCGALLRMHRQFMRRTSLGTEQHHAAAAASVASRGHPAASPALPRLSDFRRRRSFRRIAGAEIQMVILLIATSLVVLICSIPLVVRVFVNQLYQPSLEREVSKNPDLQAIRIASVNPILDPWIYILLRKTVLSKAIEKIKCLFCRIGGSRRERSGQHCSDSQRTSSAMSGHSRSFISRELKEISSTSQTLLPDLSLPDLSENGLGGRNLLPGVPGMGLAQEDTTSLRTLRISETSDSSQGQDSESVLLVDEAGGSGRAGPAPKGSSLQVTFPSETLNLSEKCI
In short: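 Stably transfected HEK293 cells carrying EP4–ProLink and β-arrestin 2–EA (β-gal fragment complementation), pre-incubated with compound 15 min at 37 °C, then stimulated with PGE2 (20 nM final) for 120 min at 37 °C. Chemiluminescence read after 1 h detection reagent at room temperature; activity per concentration expressed as percent of DMSO control.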

Sequence of PTGER2 (EP2) (P43116 whole entry, the tested form may be a part): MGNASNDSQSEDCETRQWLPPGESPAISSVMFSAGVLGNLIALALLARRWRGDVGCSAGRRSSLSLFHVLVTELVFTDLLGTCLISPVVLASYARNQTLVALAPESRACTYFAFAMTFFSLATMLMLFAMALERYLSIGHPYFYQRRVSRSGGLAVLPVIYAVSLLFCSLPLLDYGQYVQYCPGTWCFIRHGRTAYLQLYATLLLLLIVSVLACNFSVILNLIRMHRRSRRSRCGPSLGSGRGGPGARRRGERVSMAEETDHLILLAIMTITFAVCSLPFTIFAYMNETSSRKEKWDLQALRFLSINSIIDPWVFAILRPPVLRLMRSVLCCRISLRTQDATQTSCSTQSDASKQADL

| Structure (SMILES) | IC50 [1] | IC50 [2] |
| --- | --- | --- |
| COc1cc(-c2cc(NCCn3c(C)cc4c(OC)cccc43)ncn2)cc(C)c1C(=O)O [compound 254] | 64 nM | 999 nM |
| CCOc1cc(-c2cc(NCCn3c(C)cc4ccc(OC)cc43)ncn2)ccc1C(=O)O [compound 255] | 12 nM | 896 nM |
| CCOc1cc(-c2cc(NCCn3c(C)cc4c(OC)ccc(Cl)c43)ncn2)sc1C(=O)O [compound 256] | 3 nM | 29 nM |
| CCOc1cc(-c2cc(NCCn3c(C)cc4c(OC)cc(F)cc43)ncn2)sc1C(=O)O [compound 257] | 2 nM | 6 nM |
| CCOc1cc(-c2cc(NCCn3c(C)cc4cc(OC)cc(F)c43)ncn2)sc1C(=O)O [compound 259] | 37 nM | 127 nM |
| COc1cc(-c2cc(NCCn3c(C)cc4c(OC)ccc(F)c43)ncn2)ccc1C(=O)O [compound 260] | 28 nM | 536 nM |
| CCOc1cc(-c2cc(NCCn3c(C)cc4c(OC)ccc(C)c43)ncn2)sc1C(=O)O [compound 261] | 12 nM | 71 nM |
| Cc1ccc2c(c1)cc(C)n2CCNc1cc(-c2ccc(C(=O)O)c(CC(C)C)c2)ncn1 [compound 262] | 35 nM | 925 nM |
| CCCc1cc(-c2cc(NCCn3c(C)cc4cc(Cl)cc(F)c43)ncn2)ccc1C(=O)O [compound 263] | 90 nM | 587 nM |
| CCc1cc(-c2cc(NCCn3c(C)cc4c(C)cc(F)cc43)ncn2)cc(Cl)c1C(=O)O [compound 264] | 71 nM | 287 nM |
| CCc1cc(-c2cc(NCCn3c(C)cc4c(C)ccc(F)c43)ncn2)cc(F)c1C(=O)O [compound 265] | 33 nM | 491 nM |
| CCCc1cc(-c2cc(NCCn3c(C)cc4cc(C)cc(Cl)c43)ncn2)ccc1C(=O)O [compound 266] | 53 nM | 953 nM |
| CCCc1cc(-c2cc(NCCn3c(C)cc4cc(C)cc(F)c43)ncn2)ccc1C(=O)O [compound 267] | 26 nM | 317 nM |
| Cc1cc2c(Cl)cccc2n1CCNc1cc(-c2ccc(C(=O)O)c(CC(C)C)c2)ncn1 [compound 268] | 11 nM | 635 nM |
| Cc1cc(F)cc2c1cc(C)n2CCNc1cc(-c2cc(C(F)(F)F)c(C(=O)O)s2)ncn1 [compound 269] | 61 nM | 117 nM |
| CSc1cc(-c2cc(NCCn3c(C)cc4c(C)c(F)cc(Cl)c43)ncn2)ccc1C(=O)O [compound 270] | 46 nM | 513 nM |
| CCCc1cc(-c2cc(NCCn3c(C)cc4c(OC)cccc43)ncn2)ccc1C(=O)O [compound 271] | 5 nM | 153 nM |
| CCOc1cc(-c2cc(NCCn3c(C)cc4cc(F)c(Cl)c(Cl)c43)ncn2)sc1C(=O)O [compound 272] | 8 nM | 716 nM |
| CCOc1cc(-c2cc(NCCn3c(C)cc4cc(F)c(F)c(F)c43)ncn2)sc1C(=O)O [compound 273] | 1 nM | 67 nM |
| CCOc1cc(-c2cc(NCCn3c(C)cc4c(F)cc(F)c(F)c43)ncn2)sc1C(=O)O [compound 274] | 1 nM | 43 nM |
| CCOc1cc(-c2cc(NCCn3c(C)cc4c(F)c(F)cc(F)c43)ncn2)sc1C(=O)O [compound 275] | 1 nM | 25 nM |
| COc1ccc(Cl)c2c1cc(C)n2CCNc1cc(-c2cc(C)c(C(=O)O)c(F)c2)ncn1 [compound 276] | 65 nM | 885 nM |
| COc1ccc(F)c2c1cc(C)n2CCNc1cc(-c2cc(C)c(C(=O)O)c(F)c2)ncn1 [compound 277] | 17 nM | 416 nM |
| CCOc1cc(-c2cc(NCCn3c(C)cc4c(F)c(F)ccc43)ncn2)ccc1C(=O)O [compound 278] | 9 nM | 999 nM |
| CCOc1cc(-c2cc(NCCn3c(C)cc4c(Cl)cc(Cl)cc43)ncn2)ccc1C(=O)O [compound 279] | 22 nM | 313 nM |
| CCOc1cc(-c2cc(NCCn3c(C)cc4c(Cl)cc(F)cc43)ncn2)ccc1C(=O)O [compound 280] | 16 nM | 652 nM |
